Data published in patent US7445897B2, “Sequence variants of multi-drug resistance genes, MDR1 and MRP1, and methods for assessment of drug penetration and disposition” (University of Washington, priority 2004, dated 2008).
Like-named read-outs stand apart in the source and are kept apart here.

Columns and labels:
[1] = test system: Pgp (MDR1 and 1199 variants) in recombinant HEK cells; experiment: Doxorubicin intracellular accumulation in recombinant HEK cells; format: cell-based, human; conditions: recombinant HEK cells expressing MDR1, any variant
Procedure: Cells were washed with ice-cold PBS, trypsinized, and lysed in 0.5% deoxycholic acid. To precipitate the proteins tricholoracetic acid was added to 5% and the cell lysates were incubated for 30 min at 4° C. and centrifuged at 20,000 g.

[2] = target: P-gp (MDR11199, G1199A) in recombinant LLC-PK1 cells (Homo sapiens, UniProt P08183, S400N)
[3] = test system: LLC-PK1 control cells; experiment: Intracellular uptake of HIV protease inhibitors; format: in vitro ADME, porcine
[4] = test system: LLC-PK1 control cells
[5] = van Heeswijk et al. 2001; cited from earlier work
[6] = target: MDR1 (wild type) (Homo sapiens, UniProt P08183, G185V/S893A); experiment: in vitro
[7] = target: MDR1 (1199A variant) (Homo sapiens, UniProt P08183, G185V/S400N/S893A); experiment: Intracellular uptake of HIV protease inhibitors; conditions: recombinant LLC-PK1 cells expressing MDR1-1199A
[8] = healthy human subjects; Greiner et al. 1999; cited from earlier work
[9] = test system: HEK negative control cells; experiment: Cytotoxic drug sensitivity assay (MTS); format: cell-based, human; conditions: Homo sapiens, 72 h, HEK Control; 72hours, MTS; read-out: EC50 (Mean ± S.D.)
[10] = test system: MDR1 (G1199T variant); experiment: Cytotoxic drug sensitivity assay (MTS); format: cell-based, human; conditions: human, HEK293 cells recombinantly expressing MDR1 G1199T; HEK MDR1 G1199T; 72hours, MTS; read-out: EC50 (Mean ± S.D.)
[11] = test system: recombinant MDR11199 LLC-PK1 cells; experiment: Cytotoxic drug sensitivity assay (3H-thymidine); format: cell-based, porcine
Procedure: (§1) On the second day of the incubation, 1 μCi of ^3H-thymidine (specific activity: 81.1 Ci/mmole) was added to each well and incubated overnight. Cells were harvested on day 3 with a cell harvester.
(§2) Dose response analysis was performed for doxorubicin, vincristine and vinblastine. […] TRANSEPITHELIAL TRANSPORT

[12] = test system: LLC-PK1 control cells; experiment: Cytotoxic drug sensitivity assay (3H-thymidine); format: cell-based, porcine; conditions: Sus scrofa, 72 h, 3 days with drug
Procedure: as §1, §2

[13] = test system: recombinant MDR1wt LLC-PK1 cells; experiment: Cytotoxic drug sensitivity assay (3H-thymidine); format: cell-based, porcine
Procedure: as §1, §2

[14] = test system: MDR1 (wild type); experiment: Cytotoxic drug sensitivity assay (MTS); format: cell-based, human; conditions: human, HEK293 cells recombinantly expressing MDR1 wild type, HEK MDR1 WT; 72hours, MTS; read-out: EC50 (Mean ± S.D.)
[15] = test system: MDR1 (G1199A variant); experiment: in vitro; conditions: human
[16] = test system: P-gp (MDR11199, G1199A) in recombinant LLC-PK1 cells; conditions: human, LLC-PK1
[17] = target: T1, rMRP1 (Rattus norvegicus, UniProt Q8CG09); experiment: Calcein efflux in rMRP1-expressing MDCK-II cells; format: cell-based; conditions: indomethacin 100 μM, MK571 10 μM
T1 construct: expressed in transfected cells
Text: These recombinant cells were derived from MDCK-II epithelial cells that form tight junctions, suitable for transepithelial transport assessment. Several stable clones of epithelial cells that consistently express rMRP1 were constructed, which could be differentiated to form a polarized monolayer for transepithelial flux studies. […] The cells that consistently over-expressed rMRP1 were expanded from a single cell clone and analyzed for MRP1 function.

[18] = protease inhibitor + GF120918 (1 μM)

Sequence of MDR1 (wild type) (Homo sapiens, UniProt P08183, G185V/S893A) (P08183 whole entry G185V/S893A): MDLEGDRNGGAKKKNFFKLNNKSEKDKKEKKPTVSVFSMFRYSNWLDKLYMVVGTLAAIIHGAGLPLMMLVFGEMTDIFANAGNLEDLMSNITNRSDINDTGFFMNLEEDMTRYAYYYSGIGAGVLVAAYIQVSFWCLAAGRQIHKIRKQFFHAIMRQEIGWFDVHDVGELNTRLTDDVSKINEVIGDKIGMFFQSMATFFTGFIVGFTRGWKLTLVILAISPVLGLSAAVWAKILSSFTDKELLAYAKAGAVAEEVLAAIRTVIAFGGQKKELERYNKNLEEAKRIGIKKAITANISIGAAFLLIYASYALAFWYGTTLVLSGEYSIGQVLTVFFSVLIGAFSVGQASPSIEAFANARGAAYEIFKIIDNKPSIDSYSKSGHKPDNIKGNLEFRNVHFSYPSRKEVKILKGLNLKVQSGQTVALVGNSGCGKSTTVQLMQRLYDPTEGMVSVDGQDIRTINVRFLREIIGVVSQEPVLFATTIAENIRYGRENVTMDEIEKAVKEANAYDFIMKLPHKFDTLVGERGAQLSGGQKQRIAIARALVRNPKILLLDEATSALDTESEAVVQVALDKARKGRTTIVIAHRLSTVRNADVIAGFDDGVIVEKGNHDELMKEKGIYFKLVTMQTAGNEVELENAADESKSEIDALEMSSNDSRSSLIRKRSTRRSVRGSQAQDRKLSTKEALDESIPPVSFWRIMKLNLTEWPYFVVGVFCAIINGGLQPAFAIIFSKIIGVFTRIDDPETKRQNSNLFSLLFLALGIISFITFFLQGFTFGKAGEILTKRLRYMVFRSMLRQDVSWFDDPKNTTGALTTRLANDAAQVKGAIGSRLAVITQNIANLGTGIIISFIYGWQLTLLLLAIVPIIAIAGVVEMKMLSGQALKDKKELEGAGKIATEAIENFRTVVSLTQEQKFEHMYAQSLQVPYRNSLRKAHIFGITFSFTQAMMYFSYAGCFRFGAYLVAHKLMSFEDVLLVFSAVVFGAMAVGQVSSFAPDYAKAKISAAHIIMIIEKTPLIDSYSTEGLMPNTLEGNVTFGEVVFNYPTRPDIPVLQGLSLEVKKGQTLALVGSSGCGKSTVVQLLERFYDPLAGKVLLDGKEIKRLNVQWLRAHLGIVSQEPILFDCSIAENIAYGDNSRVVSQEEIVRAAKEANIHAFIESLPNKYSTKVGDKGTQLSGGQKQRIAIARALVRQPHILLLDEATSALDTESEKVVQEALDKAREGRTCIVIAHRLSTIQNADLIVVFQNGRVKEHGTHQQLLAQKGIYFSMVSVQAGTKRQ
Sequence of MDR1 (1199A variant) (P08183 whole entry G185V/S400N/S893A): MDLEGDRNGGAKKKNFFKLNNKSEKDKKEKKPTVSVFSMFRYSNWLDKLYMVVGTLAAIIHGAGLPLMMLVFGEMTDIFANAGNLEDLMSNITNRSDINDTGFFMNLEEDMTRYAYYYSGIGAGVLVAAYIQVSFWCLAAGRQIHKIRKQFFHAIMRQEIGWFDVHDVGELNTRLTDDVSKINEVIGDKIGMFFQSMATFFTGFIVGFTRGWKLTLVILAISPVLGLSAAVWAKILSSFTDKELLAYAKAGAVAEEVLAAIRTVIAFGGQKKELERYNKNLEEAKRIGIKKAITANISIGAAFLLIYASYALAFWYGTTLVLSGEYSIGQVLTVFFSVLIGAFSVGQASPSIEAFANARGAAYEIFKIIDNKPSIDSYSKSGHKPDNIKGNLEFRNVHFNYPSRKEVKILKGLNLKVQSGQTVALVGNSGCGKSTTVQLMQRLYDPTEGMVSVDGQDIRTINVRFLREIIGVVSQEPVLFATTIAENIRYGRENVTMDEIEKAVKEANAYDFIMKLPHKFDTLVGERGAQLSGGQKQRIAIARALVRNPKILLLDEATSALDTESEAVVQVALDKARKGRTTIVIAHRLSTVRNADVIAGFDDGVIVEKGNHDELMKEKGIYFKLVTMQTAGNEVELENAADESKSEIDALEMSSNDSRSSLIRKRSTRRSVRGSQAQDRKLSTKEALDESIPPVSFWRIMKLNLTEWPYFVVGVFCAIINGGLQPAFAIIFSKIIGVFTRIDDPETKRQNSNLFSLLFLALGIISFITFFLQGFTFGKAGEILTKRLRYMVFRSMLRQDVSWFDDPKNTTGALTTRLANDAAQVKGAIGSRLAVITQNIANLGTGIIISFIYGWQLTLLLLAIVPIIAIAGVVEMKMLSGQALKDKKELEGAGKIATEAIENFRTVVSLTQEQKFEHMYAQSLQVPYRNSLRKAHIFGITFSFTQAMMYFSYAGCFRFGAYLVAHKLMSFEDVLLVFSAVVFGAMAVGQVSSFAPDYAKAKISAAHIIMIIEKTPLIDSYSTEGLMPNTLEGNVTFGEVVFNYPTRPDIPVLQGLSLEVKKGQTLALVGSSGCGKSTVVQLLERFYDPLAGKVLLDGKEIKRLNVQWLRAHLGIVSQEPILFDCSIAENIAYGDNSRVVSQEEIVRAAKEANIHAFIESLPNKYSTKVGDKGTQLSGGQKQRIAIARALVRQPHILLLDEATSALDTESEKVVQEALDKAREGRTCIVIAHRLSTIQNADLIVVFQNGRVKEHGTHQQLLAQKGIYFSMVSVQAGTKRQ
Sequence of P-gp (MDR11199, G1199A) in recombinant LLC-PK1 cells (Homo sapiens, UniProt P08183, S400N) (P08183 whole entry S400N): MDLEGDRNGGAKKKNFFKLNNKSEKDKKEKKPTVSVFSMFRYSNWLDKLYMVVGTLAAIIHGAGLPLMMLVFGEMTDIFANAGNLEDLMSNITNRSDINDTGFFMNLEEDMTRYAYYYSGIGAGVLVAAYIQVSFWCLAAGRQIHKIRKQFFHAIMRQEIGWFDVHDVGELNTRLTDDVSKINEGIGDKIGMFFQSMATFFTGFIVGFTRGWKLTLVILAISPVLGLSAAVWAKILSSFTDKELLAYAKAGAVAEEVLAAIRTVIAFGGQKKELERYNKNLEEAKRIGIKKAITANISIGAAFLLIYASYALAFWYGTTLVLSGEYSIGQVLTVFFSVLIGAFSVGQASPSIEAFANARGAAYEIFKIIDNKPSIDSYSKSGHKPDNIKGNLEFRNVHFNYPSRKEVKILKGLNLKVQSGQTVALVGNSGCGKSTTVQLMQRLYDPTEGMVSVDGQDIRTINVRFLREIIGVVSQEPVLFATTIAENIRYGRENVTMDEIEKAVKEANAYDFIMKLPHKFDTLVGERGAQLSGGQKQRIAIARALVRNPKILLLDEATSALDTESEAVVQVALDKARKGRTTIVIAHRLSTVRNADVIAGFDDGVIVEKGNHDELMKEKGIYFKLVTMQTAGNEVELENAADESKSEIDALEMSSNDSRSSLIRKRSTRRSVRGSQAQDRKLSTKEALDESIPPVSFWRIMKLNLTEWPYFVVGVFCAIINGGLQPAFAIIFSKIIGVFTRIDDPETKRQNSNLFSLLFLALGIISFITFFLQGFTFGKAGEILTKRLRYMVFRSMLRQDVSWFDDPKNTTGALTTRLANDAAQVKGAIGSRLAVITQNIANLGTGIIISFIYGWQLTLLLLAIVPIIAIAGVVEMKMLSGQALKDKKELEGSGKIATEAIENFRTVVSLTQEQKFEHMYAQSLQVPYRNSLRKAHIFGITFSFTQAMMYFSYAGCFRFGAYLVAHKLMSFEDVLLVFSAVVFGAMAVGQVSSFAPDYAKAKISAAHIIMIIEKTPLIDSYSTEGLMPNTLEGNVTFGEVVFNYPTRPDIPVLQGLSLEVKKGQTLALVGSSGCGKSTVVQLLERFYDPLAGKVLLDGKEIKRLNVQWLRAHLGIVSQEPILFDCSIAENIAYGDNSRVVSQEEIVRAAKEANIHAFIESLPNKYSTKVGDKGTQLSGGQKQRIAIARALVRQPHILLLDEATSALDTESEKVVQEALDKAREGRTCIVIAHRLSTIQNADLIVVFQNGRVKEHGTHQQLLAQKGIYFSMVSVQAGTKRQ

**Q.** Which “effect of inhibitor on reduction in intracellular doxorubicin concentration” value [1] does the source give for `COc1cc2c(cc1OC)CN(CCc1ccc(NC(=O)c3cccc4c(=O)c5cccc(OC)c5[nH]c34)cc1)CC2` [GF120918, N-(4-[2-(1,2,3,4-tetrahydro-6,7-dimethoxy-2-isoquinolinyl)ethyl]-phenyl)-9,10-dihydro-5-methoxy-9-oxo-4-acridine carboxamide] here?
**A.** can be reversed

**Q.** And the “effect of inhibitor on P-gp efflux of protease inhibitors” value [2]?
**A.** effectively blocked P-gp activity

**Q.** For `CC(C)CN(C[C@@H](O)[C@H](Cc1ccccc1)NC(=O)O[C@H]1CCOC1)S(=O)(=O)c1ccc(N)cc1` [amprenavir], which Km [3] is on record?
**A.** 0.25 µM

**Q.** What about the Vmax [3] of the same compound?
**A.** 0.048 pmole/min*10^6 cells

**Q.** And the “Rate of transfer dQ/dt ± s.d., A → B” value [4, 18]?
**A.** 10.8 ± 0.9

**Q.** And the “Rate of transfer dQ/dt ± s.d., B → A” value [4, 18]?
**A.** 10.2 ± 0.4

**Q.** What about the “Rate of transfer dQ/dt ± s.d., A → B” value ([4]; protease inhibitor alone, 5 μM) of the same compound?
**A.** 9.33 ± 0.46

**Q.** What about the “Rate of transfer dQ/dt ± s.d., B → A” value ([4]; protease inhibitor alone, 5 μM) of the same compound?
**A.** 11.6 ± 0.8

**Q.** And the “oral bioavailability in systemic circulation” value [5]?
**A.** 35-90%

**Q.** And the Km [6]?
**A.** 10.2 µM

**Q.** What about the Km [7] of the same compound?
**A.** 1 µM

**Q.** For `C[C@H]1O[C@@H](O[C@H]2[C@@H](O)C[C@H](O[C@H]3[C@@H](O)C[C@H](O[C@H]4CC[C@@]5(C)[C@H](CC[C@@H]6[C@@H]5C[C@@H](O)[C@]5(C)[C@@H](C7=CC(=O)OC7)CC[C@]65O)C4)O[C@@H]3C)O[C@@H]2C)C[C@H](O)[C@@H]1O` [digoxin], which “range in the oral bioavailability from inter-individual variation in intestinal MDR1 expression” value [8] is on record?
**A.** 7 fold

**Q.** For `COc1cccc2c1C(=O)c1c(O)c3c(c(O)c1C2=O)C[C@@](O)(C(=O)CO)C[C@@H]3O[C@H]1C[C@H](N)[C@H](O)[C@H](C)O1` [doxorubicin], which EC50 [9] is on record?
**A.** 45.5 ± 25.1 nM

**Q.** And the EC50 at 72 h [10]?
**A.** 383 ± 39 nM

**Q.** And the “EC50 fold-change from control” value ([11]; MDR11199 vs LLC-PK1 control)?
**A.** 3.51 fold

**Q.** And the EC50 ([11]; Sus scrofa, 72 h, MDR11199 LLC-PK1 cells, 3 days with drug)?
**A.** 120 ± 32 nM

**Q.** And the EC50 [12]?
**A.** 34.2 ± 3.1 nM

**Q.** And the “EC50 fold-change from control” value ([13]; MDR1wt vs LLC-PK1 control)?
**A.** 4.53 fold

**Q.** What about the EC50 ([13]; Sus scrofa, 72 h, MDR1wt LLC-PK1 cells, 3 days with drug) of the same compound?
**A.** 155 ± 68 nM

**Q.** What about the EC50 at 72 h [14] of the same compound?
**A.** 1110 ± 112 nM

**Q.** What about the EC50 [15] of the same compound?
**A.** 2180 ± 361 nM

**Q.** For `CC(C)(C)NC(=O)[C@@H]1CN(Cc2cccnc2)CCN1C[C@@H](O)C[C@@H](Cc1ccccc1)C(=O)N[C@H]1c2ccccc2C[C@H]1O` [indinavir], which “Rate of transfer dQ/dt ± s.d., A → B” value [4, 18] is on record?
**A.** 4.26 ± 0.25

**Q.** And the “Rate of transfer dQ/dt ± s.d., B → A” value [4, 18]?
**A.** 5.99 ± 0.11

**Q.** And the “Rate of transfer dQ/dt ± s.d., A → B” value ([4]; protease inhibitor alone, 5 μM)?
**A.** 7.17 ± 0.03

**Q.** And the “Rate of transfer dQ/dt ± s.d., B → A” value ([4]; protease inhibitor alone, 5 μM)?
**A.** 6.69 ± 0.21

**Q.** What about the “oral bioavailability in systemic circulation” value [5] of the same compound?
**A.** 70%

**Q.** What about the “decrease in apical-to-basolateral flux in MDR11199 cells compared to MDR1wt cells” value [16] of the same compound?
**A.** 1.9 fold

**Q.** Which “effect of MRP1 inhibitor on calcein efflux” value [17] does the source give for `COc1ccc2c(c1)c(CC(=O)O)c(C)n2C(=O)c1ccc(Cl)cc1` [indomethacin] here?
**A.** suppressed efflux transport of calcein back to the control level
